Patent US5457108A, “5-oxo-dibenzo[a,d]cyclohepta-1,4-dienes” (Bayer Aktiengesellschaft, priority 1992, dated 1995)

Legend:
HIV protease = biological target: T1, HIV protease (Human immunodeficiency virus type 1 group M subtype B, UniProt P04585); assay: HIV protease enzyme test (cleavage of synthetic Gag peptide, RP-HPLC); type: biochemical; details: purified HIV protease, synthetic peptide substrate, read-out: IC50 (50% inhibition of the protease activity)
T1 construct: purified HIV protease was incubated with synthetic peptide
Procedure: This is verified by means of an HIV-specific protease enzyme test.
The results of the examples listed below were determined according to the HIV test system described in the following references [cf. Hansen, J., Billich, S., Schulze, T., Sukrow, S. and Molling, K (1988), EMBO Journal, Vol. 7, No. 6, pp. 1785-1791]: purified HIV protease was incubated with synthetic peptide which imitates a cleavage site in the Gag precursor protein and represents an in-vivo cleavage site for the HIV protease. The cleavage products of the synthetic peptide which resulted were analysed by means of reverse phase high performance liquid chromatography (RP-HPLC). The IC50 values which are given refer to the substance concentrations which, under the test conditions set out above, effect a 50% inhibition of the protease activity.

HIV = HIV infection in cell culture (syncytium formation in HIV-infected human PBLs); type: cell-based; details: Human immunodeficiency virus 1, Lymphocyte, 72 h; HIV-infected normal human blood lymphocytes (PBLs), 37° C., evaluated day 3 to 6 after infection; read-out: IC50 (50% of the virus-induced syncytia suppressed)
Procedure: HIV infection in cell culture
The HIV test was carried out, with minor modifications, according to the method of Pauwels et al. [cf. Journal of Virological Methods 20, (1988), 309-321].
Normal human blood lymphocytes (PBLs) were enriched through Ficoll-Hypaque and stimulated in RPMI 1640, 20% fetal calf serum containing phytohaemagglutinin (90 μg/ml) and interleukin-2 (40 U/ml). For infection with the infectious HIV, the PBLs were pelleted and the cell pellet was subsequently suspended in 1 ml of HIV virus adsorption solution and incubated at 37° C. for 1 hour.
The virus adsorption solution was centrifuged and the infected cell pellet was taken up in growth medium in such a way that the suspension was adjusted to 1×10^5 cells per ml. The cells infected in this manner were pipetted, at 1×10^4 cells/well, into the wells of 96-well microtitre plates.
The first vertical row of the microtitre plate contained only growth medium and cells which were not infected but which otherwise had been treated exactly as described above (cell control). The second vertical row of the microtitre plate contained only HIV-infected cells (virus control) in growth medium. […]
The test mixtures were incubated at 37° C. until the syncytium formation which is typical for HIV appeared in the untreated virus control (between day 3 and 6 after infection) and it was then evaluated microscopically. […]

Row | IC50 (HIV protease) [nM] | SMILES | IC50 (HIV) [µM]
1 | 5 | O=C(NCc1ccc2c(c1)[C@@H](O)[C@H](O)c1cc(CNC(=O)OCc3ccccc3)ccc1C2=O)OCc1ccccc1 (relative stereo) [Example 4, (trans)-2,8-Bis-phenylmethoxycarbonylaminomethyl-10,11-dihydroxy-5-oxo-dibenzo[a,d]cyclohepta-1,4-diene] | 10
2 |  | O=C(NCc1ccc2c(c1)[C@@H](O)[C@@H](O)c1cc(CNC(=O)OCc3ccccc3)ccc1C2=O)OCc1ccccc1 [Example 5, (cis)-2,8-Bis-phenylmethoxycarbonylaminomethyl-10,11-dihydroxy-5-oxo-dibenzo[a,d]cyclohepta-1,4-diene] | 10
3 | 2000 | CC(C)(C)S(=O)(=O)CC(Cc1cccc2ccccc12)C(=O)NCc1ccc2c(c1)C(O)C(O)c1cc(CNC(=O)C(Cc3cccc4ccccc34)CS(=O)(=O)C(C)(C)C)ccc1C2=O (stereo not drawn) [Example 6, (trans)-10,11-Dihydroxy-2,8-bis-[5,5-dimethyl-4,4-dioxo-2-(1-naphthylmethyl)-4-thiahexanoylaminomethyl-5-oxodibenzo[a,d]cyclohepta-1,4-diene] | 
